The IC50 is the concentration needed to halve the response being measured. Lower therefore signals inhibition by little substance.

Assay [1] has as its target T1, MKNK1 (Homo sapiens, UniProt Q9BUB5, T385D).
T1 construct: GST (N); purchased Carna Biosciences 02-145; host or cells: insect cells (baculovirus expression system)
Briefly: MKNK1 kinase assay (MKNK1 TR-FRET assay). Type of assay: biochemical. The following applies: Table 1c; 10 μM ATP, 15 min preincubation. In general terms: TR-FRET usually uses a lanthanide donor and a delayed reading to cut background.

Assay [2] concerns the target T1, MKNK1. Nature of the assay: MKNK1 kinase high ATP assay (TR-FRET-based). Type of assay: biochemical. Particulars: Table 2c; 2 mM ATP, 15 min preincubation. Summed up: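 GST-tagged full-length human MKNK1 (aa 1-424, T344D) from insect cells, preincubated with compound 15 min at 22 °C. Reaction 30 min at 22 °C with 2 mM ATP and 0.06 μM biotinylated peptide in HEPES pH 7.5, Mg2+, DTT. Phosphopeptide detected by TR-FRET (665/622 ratio) with anti-pS6 (pSer236) antibody; normalised to no-inhibitor and no-enzyme controls.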

T1 sequence (Q9BUB5 1-424 isoform Q9BUB5-2 T344D): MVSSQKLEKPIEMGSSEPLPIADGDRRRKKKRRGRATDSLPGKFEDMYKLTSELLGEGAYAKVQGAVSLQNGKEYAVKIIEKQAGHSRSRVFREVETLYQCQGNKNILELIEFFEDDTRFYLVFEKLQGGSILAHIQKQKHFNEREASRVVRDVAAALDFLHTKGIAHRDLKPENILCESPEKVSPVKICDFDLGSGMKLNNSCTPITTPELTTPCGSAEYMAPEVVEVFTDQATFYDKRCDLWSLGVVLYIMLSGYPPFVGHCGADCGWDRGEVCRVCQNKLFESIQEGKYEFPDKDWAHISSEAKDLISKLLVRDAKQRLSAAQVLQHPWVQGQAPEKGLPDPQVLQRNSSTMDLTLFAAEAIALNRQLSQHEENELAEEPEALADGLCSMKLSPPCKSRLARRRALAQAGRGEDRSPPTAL

Consider `CS(=O)(=O)CCCOc1ccc2ncc(-c3cc4c(N5CCOCC5)nccc4o3)n2n1` [III-42, 6-[3-(Methylsulfonyl)propoxy]-3-[4-(morpholin-4-yl)furo[3,2-c]pyridin-2-yl]imidazo[1,2-b]pyridazine], for which the IC50 worked out at 2.2 nM at MKNK1 [1] and 4.7 nM at MKNK1 [2].
In the case of `CN1CCN(c2nccc3oc(-c4cnc5ccc(OCCCS(C)(=O)=O)nn45)cc23)CC1` [III-43, 3-[4-(4-Methylpiperazin-1-yl)furo[3,2-c]pyridin-2-yl]-6-[3-(methylsulfonyl)-propoxy]imidazo[1,2-b]pyridazine], the IC50 on MKNK1 [1] was found to be 5.7 nM; against MKNK1 [2] it was 5.3 nM.
On the same counts, the results for `CS(=O)(=O)CCCOc1ccc2ncc(-c3cc4c(N5CCCC5)nccc4o3)n2n1` [III-44, 6-[3-(Methylsulfonyl)propoxy]-3-[4-(pyrrolidin-1-yl)furo[3,2-c]pyridin-2-yl]imidazo[1,2-b]pyridazine] are 5.5 nM and 14.9 nM.
Consider `CS(=O)(=O)CCCOc1ccc2ncc(-c3cc4c(N5CCCCC5)nccc4o3)n2n1` [III-45, 6-[3-(methylsulfonyl)propoxy]-3-[4-(piperidin-1-yl)furo[3,2-c]pyridin-2-yl]imidazo[1,2-b]pyridazine], for which the results for the IC50 against MKNK1 [1] and against MKNK1 [2] were 4.4 nM and 8.1 nM, respectively.
`CN(C)[C@@H]1CCN(c2nccc3oc(-c4cnc5ccc(OCCCS(C)(=O)=O)nn45)cc23)C1` [III-46, (3R)—N,N-Dimethyl-1-(2-{6-[3-(methylsulfonyl)propoxy]imidazo[1,2-b]pyridazin-3-yl}furo[3,2-c]pyridin-4-yl)pyrrolidin-3-amine]: the IC50 on MKNK1 [1] was found to be 3.9 nM; on MKNK1 [2] it was 3.6 nM.
On to `CN(CCCN1CCCC1)c1nccc2oc(-c3cnc4ccc(OCCCS(C)(=O)=O)nn34)cc12` [III-47, N-methyl-2-{6-[3-(methylsulfonyl)propoxy]imidazo[1,2-b]pyridazin-3-yl}-N-[3-(pyrrolidin-1-yl)propyl]furo[3,2-c]pyridin-4-amine], for which the results for the IC50 on MKNK1 [1] and against MKNK1 [2] were 13.6 nM and 21.2 nM, respectively.
Regarding `CC(C)(C)N1CCN(c2nccc3oc(-c4cnc5ccc(OCCCS(C)(=O)=O)nn45)cc23)CC1` [III-48, 3-[4-(4-tert-Butylpiperazin-1-yl)furo[3,2-c]pyridin-2-yl]-6-[3-(methylsulfonyl)-propoxy]imidazo[1,2-b]pyridazine], the IC50 came out at 11.9 nM against MKNK1 [1] and 32.1 nM against MKNK1 [2].
Take `CC(C)(C)OC(=O)N1CCN(c2nccc3oc(-c4cnc5ccc(OCCCS(C)(=O)=O)nn45)cc23)CC1` [III-49, tert-Butyl 4-(2-{6-[3-(methylsulfonyl)propoxy]imidazo[1,2-b]pyridazin-3-yl}furo[3,2-c]pyridin-4-yl)piperazine-1-carboxylate]: the IC50 at MKNK1 [1] worked out at 21.3 nM; at MKNK1 [2], 38.5 nM.
For the compound `CCN(CCOC)c1nccc2oc(-c3cnc4ccc(OCCCS(C)(=O)=O)nn34)cc12` [III-50, N-Ethyl-N-(2-methoxyethyl)-2-{6-[3-(methylsulfonyl)propoxy]imidazo[1,2-b]pyridazin-3-yl}furo[3,2-c]pyridin-4-amine], the IC50 against MKNK1 [1] turned out to be 1.4 nM; against MKNK1 [2], 0.5 nM.
As to `CC(=O)N1CCN(c2nccc3oc(-c4cnc5ccc(OCCCS(C)(=O)=O)nn45)cc23)CC1` [III-51, 1-[4-(2-{6-[3-(Methylsulfonyl)propoxy]imidazo[1,2-b]pyridazin-3-yl}furo[3,2-c]pyridin-4-yl)piperazin-1-yl]ethanone], the IC50 was found to be 7.3 nM against MKNK1 [1] and 14.2 nM against MKNK1 [2].
For the compound `COCCN(C)c1nccc2oc(-c3cnc4ccc(OCCCS(C)(=O)=O)nn34)cc12` [III-52, N-(2-Methoxyethyl)-N-methyl-2-{6-[3-(methylsulfonyl)propoxy]imidazo[1,2-b]pyridazin-3-yl}furo[3,2-c]pyridin-4-amine], the figures for the half-maximal inhibitory concentration (IC50) against MKNK1 [1] and against MKNK1 [2] were 1.8 nM and 3.7 nM, respectively.

Source of the values: patent US20160287589A1, “SUBSTITUTED-IMIDAZOPYRIDAZINES” (BAYER PHARMA AKTIENGESELLSCHAFT, priority 2013, published 2016).
